Laboratory results as given in US9468209B2, “Method for eradicating weeds with derivatives of 3-acetyl-5-sec-butyl-4-hydroxy-3-pyrrolin-2-one” (priority 2012, dated 2016).

Tests used:
photosystem II = experiment: PSII oxygen evolution / electron transfer activity of treated Crofton weed leaves; assay type: biochemical; details: 50 μg/mL, strong light 12 hours
Experimental: (§1) Compounds 10-57 were dissolved in small amount of methanol. The solutions were then diluted with distilled water to a concentration of 50 μg/mL. A mixture of methanol and water in the same ratio as the sample solution was also prepared and used as control in the experiment. The healthy leaves of Crofton weed were washed in water for 30 minutes and then rinsed with distilled water. The clean and tissue dried leaves were placed in petri dish with the back-side of the leaves facing up. Wet filter paper was also placed in the in petri dish for moisture control. Water, methanol and chemical solutions of the analogues were applied to the back-side of each leaf. Test sample was then placed in vacuum chamber at 25° C. for 15 min followed by exposure to the strong light (400 μM m^−2 s^−1) for 12 hours. The leaf sample went through a series of test, and the Hill reaction rate, the electron transfer activity and fluorescence of chlorophyll were measured. Four leaves were used for each treatment and each test was repeated three times.

[1] = system: fluorescence of chlorophyll; experiment: Fluorescence of chlorophyll of treated Crofton weed leaves; assay type: biochemical; details: 50 μg/mL, strong light 12 hours
Experimental: as §1

Hill reaction = Hill reaction activity of treated Crofton weed leaves; assay type: biochemical; details: 50 μg/mL, strong light 12 hours
Experimental: as §1

Crofton weed = experiment: Needle puncture pathogenic test on slightly wounded leaf of Crofton weed; assay type: in vivo; details: Crofton weed leaf, 50 μg/mL, 25° C., natural light
Experimental: 3-acetyl-5-sec-butyl-4-hydroxy-3-pyrrolin-2-one analogs were dissolved in a small amount of methanol and diluted with water to a concentration of 5-100 μg/g. A pathogenic test was conducted by placing the toxic liquid on the slightly wounded leaf of Crofton weed with a needle. The test has shown that the pathogenic capability of 3-acetyl-5-sec-butyl-4-hydroxy-3-pyrrolin-2-one analogs with respect to Crofton weed increases with the increase of concentration. The spot diameter caused on the leaf of Crofton weed after 24 hours was 2 mm at 50 μg/g.
3-acetyl-5-sec-butyl-4-hydroxy-3-pyrrolin-2-one analogue (Table 3, compounds 10-57) was dissolved in small amount of methanol. The solution was then diluted with distilled water to a concentration of 50 μg/mL. Methanol solution with same concentration and pure distilled water were used as control of the experiment. A pathogenic test was conducted by placing the toxic liquid on the slightly wounded leaf of Crofton weed with a needle. The experiment was carried out at 25° C. under the natural light and each test was repeated 6 times. It was measure the diameter of the spot after 24 h. […] The size of the side chain also has an effect on their activity.
Fourteen salts of 3-acetyl-5-sec-butyl-4-hydroxy-3-pyrrolin-2-one analogs were dissolved in small amount of methanol and diluted with distilled water to a concentration of 50 μg/mL. Methanol/water mixture was also prepared and used as control. Needle puncture method was used for the test on the small pieces of Crofton weed. Each treatment was repeated six times or more. The test samples were kept under natural light at 25° C. for 24 hours. The diameters of damaged spot of the plant leaves were measured by vernier caliper.

| Structure (SMILES) | PSII Activity of oxygen evolution (photosystem II) [uMO2/mgChlh] | Fv/Fm [1] | Activity of Hill Reaction (Hill reaction) [uMO2/mgChlh] | Time of Disease spot (Crofton weed) [h] | Average diameter of spot after 24 h (Crofton weed) [mm] |
| --- | --- | --- | --- | --- | --- |
| CCC1(CC)NC(=O)C(C(C)=O)=C1O [Compound 23] | 38.24 | 0.79 | 63.28 | 18.3 ± 2.17 | 2.23 ± 0.12 |
| CCC1(C)NC(=O)C(C(C)=O)=C1O (stereo not drawn) [Compound 24] | 43.01 | 0.83 | 71.37 | 16.21 ± 3.55 | 2.43 ± 0.07 |
| CCCC1(CCC)NC(=O)C(C(C)=O)=C1O [Compound 25] | 57.12 | 0.82 | 97.55 | 15.22 ± 2.00 | 2.44 ± 0.10 |
| CCCC1(C)NC(=O)C(C(C)=O)=C1O (stereo not drawn) [Compound 26] | 58.01 | 0.82 | 89.15 | 13.61 ± 1.35 | 3.31 ± 0.07 |
| CCCC1(CC)NC(=O)C(C(C)=O)=C1O (stereo not drawn) [Compound 27] | 53.24 | 0.81 | 91.45 | 14.2 ± 4.15 | 3.18 ± 0.93 |
| CCCCC1(CCCC)NC(=O)C(C(C)=O)=C1O [Compound 28] | 31.76 | 0.82 | 75.03 | 16.9 ± 2.25 | 2.40 ± 0.11 |
| CCCCC1(CC)NC(=O)C(C(C)=O)=C1O (stereo not drawn) [Compound 30] | 22.78 | 0.79 | 47.33 | 13.3 ± 2.00 | 4.53 ± 1.03 |
| CCC(C)(C)C1NC(=O)C(C(C)=O)=C1O (stereo not drawn) [Compound 32] | 32.13 | 0.82 | 63.42 | 12.5 ± 3.75 | 4.82 ± 1.44 |
| CC(=O)C1=C(O)C(CCC(C)C)NC1=O (stereo not drawn) [Compound 33] | 26.54 | 0.79 | 51.94 | 13.5 ± 0.75 | 4.17 ± 1.15 |
| CC(=O)C1=C(O)C(CC(=O)O)NC1=O (stereo not drawn) [Compound 34] | 35.11 | 0.81 | 65.73 | 24.0 ± 0.02 | 1 ± 0.86 |
| CCCC(C#N)C1NC(=O)C(C(C)=O)=C1O (stereo not drawn) [Compound 38] | 40.41 | 0.81 | 64.69 | 13.6 ± 0.50 | 9.82 ± 0.02 |
| CC(=O)C1=C(O)C(C(C)C)NC1=O (stereo not drawn) [Compound 39] | 33.79 | 0.80 | 62.72 | 16.5 ± 2.15 | 4.89 ± 0.37 |
| CSCCC1NC(=O)C(C(C)=O)=C1O (stereo not drawn) [Compound 41] | 41.32 | 0.83 | 59.07 | 20.8 ± 3.00 | 2.45 ± 0.24 |
| CCC(C)C1NC(=O)C(C(=O)CCCl)=C1O (stereo not drawn) [Compound 43] | 47.80 | 0.83 | 63.35 | 20.1 ± 1.15 | 2.30 ± 0.28 |
| CCOCCC(=O)C1=C(O)C(C(C)CC)NC1=O (stereo not drawn) [Compound 45] | 27.04 | 0.79 | 41.00 | 20.3 ± 0.57 | 2.73 ± 0.73 |
| CCC(C)C1NC(=O)C(C(=O)OCCc2ccccc2)=C1O (stereo not drawn) [Compound 46] | 43.67 | 0.82 | 58.78 | 22.1 ± 1.35 | 2.31 ± 0.44 |
| CCC(C)C1NC(=O)C(C(=O)CCOc2ccccc2)=C1O (stereo not drawn) [Compound 47] | 49.01 | 0.82 | 67.99 | 21.2 ± 1.88 | 2.12 ± 0.09 |
| CCC(C)C1NC(=O)C(C(=O)Cc2ccccc2)=C1O (stereo not drawn) [Compound 51] | 32.15 | 0.81 | 52.23 | 15.1 ± 1.82 | 3.28 ± 1.12 |
| CCC(C)C1NC(=O)C(C(=O)Cc2ccc([N+](=O)[O-])cc2)=C1O (stereo not drawn) [Compound 52] | 36.86 | 0.82 | 53.13 | 15.3 ± 1.72 | 3.83 ± 1.03 |
| CCCCCC(C#N)C1NC(=O)C(=C(C)O)C1=O (stereo not drawn) [Compound 54] | 31.98 | 0.81 | 43.65 | 11.30 ± 0.73 | 8.211 ± 0.101 |
| CC(=O)C1C(=O)NC(C)C1=O (stereo not drawn) [Compound 57] | 35.13 | 0.82 | 63.42 | 20.4 ± 0 | 1.98 ± 0.51 |
